Data taken from ChEMBL document CHEMBL3507680, “University of Dundee, Gates Library screen for HepG2 cell viability”.

experiment: Human HepG2 cell viability assay in 384 well format; format: toxicity, cell-based; set-up: dose 125 nL, time 70.5 hour; cytotoxicity at 70.5 h: concentration not given beside the values; settings: HepG2 cells, read-out: Inhibition

SMILES | cytotoxicity at 70.5 h
CCNC(=O)N1CC(c2nc(Cc3ccccc3)no2)C1 | -5.59%
Cc1nnsc1C(=O)N1CC(c2nc3ccccc3[nH]2)C1 | -14.1%
Cc1cc(C)n(CCN2CCN(C(=O)c3ccc(Br)o3)CC2)n1 | -4.56%
O=C(Nc1ccc2c(c1)OCO2)N1CCN(CCn2cccn2)CC1 | -11.3%
N#Cc1ccc(C(=O)N2CC(c3nc(-c4ncccn4)no3)C2)cc1 | -13.2%
CCS(=O)(=O)N1CC(c2nc(-c3ccsc3)no2)C1 | -3.37%
COc1ccc(C(=O)NCc2ccco2)nn1 | -6.23%
O=C(NCC(Cc1cccc(F)c1)N1CCCC1=O)c1ccc[nH]c1=O (stereo unspecified) | -16.4%
O=C(NCC(Cc1cccc(F)c1)N1CCCC1=O)C1CCCC1 (stereo unspecified) | -13.2%
CCS(=O)(=O)NCC(Cc1cccc(F)c1)N1CCNC1=O (stereo unspecified) | 6.34%
COc1cc(CN2CCC(COCc3ccccc3)CC2)cc(OC)c1 | 19.3%
O=S(=O)(c1ccccc1Cl)N1CCC2(CC1)OCCS2 | -9.74%
Cc1c(Cl)cccc1S(=O)(=O)N1CCC2(CC1)OCCS2 | -1.11%
O=C(NC1CC1)C1CN(C(=O)c2cnccn2)C1 | -3.98%
O=C(NCC(F)(F)F)C1CN(C(=O)c2cnccn2)C1 | -9.42%
CC(=O)c1cccc(NC(=O)C2CN(S(=O)(=O)C3CC3)C2)c1 | -2.67%
O=C(N1CCOCC1CO)C1(c2cccs2)CCCC1 (stereo unspecified) | -4.96%
c1ccc2c(c1)CCN(c1nc(N3CCOCC3)c3nn[nH]c3n1)C2 | -0.0594%
N[C@H]1CN(C(=O)Cc2cc(F)cc(Cl)c2)C[C@@H]1C1CC1 | -3.32%
NC(=O)CNC(=O)c1cc(Cn2cnc3ccccc32)[nH]n1 | -5.83%
Cc1csc(CCNC(=O)C2CCN(CC(N)=O)CC2)n1 | 8.97%
CC(C)c1nccn1CCCNC(=O)c1ccc(-c2cccnc2)nc1 | -9.12%
CN1CCN2CCN(C(=O)c3cc4ncc(CCO)cn4n3)CC2C1 (stereo unspecified) | -15.2%
CCNC(=O)C1CCN(c2cc(-c3ccccc3)nc3cc(C)nn23)C1 (stereo unspecified) | -2.31%

SMILES | cytotoxicity at 70.5 h
Cc1ccc(OCc2occc2C(=O)N2CCOC(C(=O)O)C2)cc1 (stereo unspecified) | 11.5%
O[C@@H]1CN(c2nc3ccccc3s2)CC[C@H]1c1ccc2c(c1)OCO2 | -3.71%
CN(Cc1cn(CC2CCNCC2)nn1)CC1CCCCO1 (stereo unspecified) | -8.15%
CCc1nc(N2CCC3(CCC(=O)N(CCCO)C3)CC2)no1 | 9.45%
C1CCC(c2nn3c(C4CCCO4)nnc3s2)C1 (stereo unspecified) | -9.64%
O=C1NCCN(C(=O)c2cn3ccsc3n2)C1c1cccc(F)c1 (stereo unspecified) | 25.9%
Cc1cc(C)n(-c2ccccc2NC(=O)NCCS(=O)(=O)CC(C)C)n1 | -8.6%
COc1cc(NC(=O)c2ccc(CN3CC[C@H](O)C3)cc2)cc(OC)c1 | -10.7%
Cc1nn(-c2ccccc2)c(C)c1-c1ccnc(N2CCC(O)CC2)n1 | -5.36%
CC(C)c1csc(C(=O)N2CCCC(Cn3cc(CO)nn3)C2)n1 (stereo unspecified) | -0.0869%
O=C(NC1CCCCC1)N1C[C@H]2CN(c3cnccn3)C[C@@]2(C(=O)O)C1 | -14.9%
CN(Cc1ccc(C(=O)Nc2sccc2C#N)cc1)Cc1ccno1 | -5.41%
O=C(c1ccc(C2CCNC2)cc1)N1CCC(N2CCC(O)CC2)CC1 (stereo unspecified) | 3.75%
COc1ccccc1CNC(=O)CN(C)C(C)c1ccon1 (stereo unspecified) | -18.5%
Cc1cccc(C(C(=O)N(C)Cc2ccco2)N(C)C)c1 (stereo unspecified) | 2.2%
CCc1ncc(CN2CCC3(CCCN(CC4CCC4)C3)C2)cn1 (stereo unspecified) | -6.02%
CN(CCn1ccc2ccccc21)C(=O)Cc1n[nH]c(=O)[nH]1 | 1.76%
Cc1cnn(CCCNC(=O)CCC2CCCCN2C)c1 (stereo unspecified) | -13.1%
COc1ccc(OC)c(CNCc2ccnc(N3CCCCC3)c2)c1 | -8.18%
COc1cc(CNCc2ccnc(N3CCCCC3)c2)cc(OC)c1 | 4.65%
CCS(=O)(=O)N1CCC(NC(=O)c2cc(C(C)C)ccc2O)CC1 | 1.02%
CC(C)CCN(C)Cc1nc2c(cnn2C)c(=O)[nH]1 | -5.91%
Cc1ccsc1CN(Cc1nc2c(cnn2C)c(=O)[nH]1)C(C)C | 2.45%
Cc1cccc(OCCC(=O)NCC2CN(C)CCO2)c1C (stereo unspecified) | -5.5%

SMILES | cytotoxicity at 70.5 h
CN1CCOC(CNC(=O)CCCOc2cccc(F)c2)C1 (stereo unspecified) | 0.774%
CC(C)c1nn(C)c(N2CCOCC2)c1CNCCC(=O)N(C)C | 22.2%
CCc1nnc2n1CCN(C(C(=O)NC1CC1)c1ccccc1)C2 (stereo unspecified) | -7.08%
Cc1nnc2n1CCN(C(C(=O)N1CCCCC1)c1ccccc1)C2 (stereo unspecified) | -1.38%
Cc1ccc(-c2nc(CNC3CCc4ncnn4C3)cs2)cc1 (stereo unspecified) | 2.93%
Cc1nc2n(n1)CC(NCc1csc(-c3ccsc3)n1)CC2 (stereo unspecified) | -8.64%
Cc1c(F)cc(C(=O)O)cc1S(=O)(=O)Nc1ccccc1 | 3.77%
O=C(CCOc1ccccc1)N1CCCC(n2cncn2)C1 (stereo unspecified) | 2.02%
Cc1ccc(CC(=O)N2CCc3nnc(N(C)C)cc3C2)s1 | -4.06%
O=C(NC1CC1)C(c1ccccc1)N1CCn2c(nnc2C2CC2)C1 (stereo unspecified) | 1.07%
COCc1nc(C(=O)NS(=O)(=O)c2ccc(Cl)cc2F)cs1 | -3.46%
NC(=O)c1ccc(OCC(=O)NS(=O)(=O)c2ccc3c(c2)CCC3)cc1 | -2.69%
CC(C)(O)CN1CCN(C(=O)c2ccc(Cl)c3cccnc23)CC1 | 26%
O=C(Nc1cccc(F)c1)C1CCCN1c1nccs1 (stereo unspecified) | 1.52%
N#Cc1cccc(NC(=O)C2CCCN2c2nccs2)c1 (stereo unspecified) | -2.24%
CC1CN(C(=O)c2cccc(OCc3cscn3)c2)CCO1 (stereo unspecified) | -1.66%
CC(=O)N1CCN(C(=O)c2cccc(OCc3cscn3)c2)CC1 | 0.43%
CCC1CN(C(=O)c2cccc(OCc3cscn3)c2)CCO1 (stereo unspecified) | -5.57%
O=C(NCCCn1ccnc1)N1CCCC1c1ccsc1 (stereo unspecified) | 24.9%
COc1ccc(NC(=O)N(CC2CCOC2)C2CC2)cn1 (stereo unspecified) | -6.27%
CCN(CC1CCOC1)C(=O)Nc1ccc(N2CCCCC2)nc1 (stereo unspecified) | -1.47%
NC(=O)C1CCCN(C(=O)c2cccc(OCc3cscn3)c2)C1 (stereo unspecified) | -9.59%
Cc1cc(CN(C)C(=O)NC2CCN(C3CC3)CC2)no1 | -3%
Cc1noc(C)c1CN(C)C(=O)NC1CCCN(S(C)(=O)=O)C1 (stereo unspecified) | 0.729%

SMILES | cytotoxicity at 70.5 h
Cc1ccc(C(=O)N2CCCN(Cc3cccs3)CC2)c(=O)[nH]1 | -0.458%
O=C(c1cccnc1O)N1CCN(CCc2cccs2)CC1 | -6.9%
CCOC(=O)CCNC(=O)c1nc(OCC)ccc1Cl | -3.61%
Cc1n[nH]c(=O)c(C(=O)N2CCN(CCc3cccs3)CC2)c1C | -2.36%
CCN(CC1CCOC1)C(=O)Nc1ccc(OCC(F)(F)F)nc1 (stereo unspecified) | -2.33%
Cn1cnc2c1CCN(Cc1csc(-c3ccccc3F)n1)C2 | -3.29%
CC(O)CN1CCN(C(=O)c2cc(Cl)cc3cccnc23)CC1 (stereo unspecified) | -5.43%
CC(C)(O)CN1CCN(C(=O)c2cccc3cccnc23)CC1 | -2.87%
CCc1[nH]ncc1C(=O)N1CCCN(Cc2nccn2C(C)C)CC1 | 0.199%
CCOc1ccc(Cl)c(C(=O)NCCc2ncc[nH]2)n1 | -3.13%
Cc1nc(CN2CCCN(C(=O)c3cccnc3O)CC2)cs1 | -4.77%
CCC(O)CN1CCN(C(=O)c2cc(Cl)cc3cccnc23)CC1 (stereo unspecified) | 18.2%
NC(=O)c1cc(C2CCCN(CCOCC3CC3)C2)n[nH]1 (stereo unspecified) | -1.45%
Cc1nc(C2CCCN2CCCS(=O)(=O)c2ccccc2)no1 (stereo unspecified) | -3.41%
O=C(Nc1cccc(C2SCCS2)c1)C1CCCN1c1nccs1 (stereo unspecified) | 0.117%
COc1ccc(C2CCCN2C(=O)NCCn2ccnc2)cc1 (stereo unspecified) | 1.98%
COc1ccc(C2CCCN2C(=O)NCCCn2ccnc2)cc1 (stereo unspecified) | 16.1%
Cc1noc(C)c1C(=O)N1CCCN(Cc2nccn2C(C)C)CC1 | 0.0993%
CC(=O)N(C)CC(=O)NCC1CCN(c2cc(Cl)ccc2C)C1 (stereo unspecified) | 2.11%
CCc1nc(C2CCCN2CCS(=O)(=O)c2ccccc2)no1 (stereo unspecified) | -1.81%
Cc1cc(C(=O)N2CCCN(Cc3cnn(C)c3)CC2)no1 | -3.47%
O=C(Cc1cn2ccsc2n1)N1CCCC(n2ccnc2)C1 (stereo unspecified) | -2.03%
CN(C)c1cc(C(=O)N2CCCCCC2)ccn1 | -8.97%
CN(C)c1ccc(NC(=O)NCC2CCOC2)cn1 (stereo unspecified) | -9.11%

SMILES | cytotoxicity at 70.5 h
O=C(c1ccc(OCC2CC2)nc1)N1CCCC(n2cccn2)C1 (stereo unspecified) | -7.07%
Cn1ccc(CN2CCC(NC(=O)C3CCCCC3)CC2)cc1=O | -3.14%
c1ccc(COc2cccc(CNC3CCc4ncnn4C3)c2)cc1 (stereo unspecified) | 19.6%
Cc1cnn(C2CCCN(C(=O)c3ccc(OCC4CC4)nc3)C2)c1 (stereo unspecified) | -3.84%
O=C(c1ccc(N2CCCC2)nc1)N1CCCC(n2cncn2)C1 (stereo unspecified) | -9%
O=C(Nc1nccs1)NC1CCN(CC2CCCC2)CC1 | -13.1%
c1cnnc(N2CCCC2CNCc2nc(-c3cccs3)no2)c1 (stereo unspecified) | -15.1%
c1ccc(OCc2cscn2)c(CNC2CCc3ncnn3C2)c1 (stereo unspecified) | -4.78%
Cc1cnn(CC2CCCN2Cc2cn3ccsc3n2)c1 (stereo unspecified) | -9.34%
c1cnn(CC2CCCN2Cc2cn3ccsc3n2)c1 (stereo unspecified) | 6.04%
CC(C)CNC(=O)NC(=O)C(C)Nc1cccc(CN2CCOC2=O)c1 (stereo unspecified) | -10.8%
COc1cc(CNCc2ccnc(N3CCCC3)c2)cc(OC)c1 | 1.37%
CC1CCN(C(=O)CN2CC(c3nc(C4CC4)no3)C2)CC1 | 23.6%
Cc1noc(C2CN(Cc3ccc4c(c3)CCO4)C2)n1 | -11.7%
c1cnc(-c2noc(C3CN(Cc4ccc5c(c4)CCO5)C3)n2)nc1 | -2.95%
c1csc(-c2noc(C3CN(Cc4ccc5c(c4)CCO5)C3)n2)c1 | -9.73%
O=C(CN1CC(c2nc(-c3cccs3)no2)C1)NCC1CCCO1 (stereo unspecified) | -2.94%
COc1cc(COCC2CCN(Cc3cccnc3)CC2)cc(OC)c1 | -1.2%
CN(CCO)CC1COCCN1C(=O)C1CCCCC1 (stereo unspecified) | -14.2%
CN(CCO)CC1COCCN1C(=O)CCC1CCCC1 (stereo unspecified) | 47.6%
